Data set [1] concerns A/Hong Kong/4801/2014 (H3N2). In words: microbe, parasite or virus in culture. It counts as cell-based, Influenza A.
The subject of data set [2] is A/Michigan/45/2015 (H1N1). Put plainly: microbe, parasite or virus in culture. Format: cell-based, Influenza A.
The conditions of data set [3]: in vivo, cited from earlier work.
The subject of data set [4] is A/PR/8/1934 (H1N1) (wild-type). Put plainly: microbe, parasite or virus in culture. It counts as cell-based. Conditions: Influenza A virus.
Data set [5] deals with A/California/04/2009 (H1N1). In words: microbe, parasite or virus in culture. It counts as cell-based. The following applies: Influenza A virus.
The mark [6] stands for this setting: read-out: EC50 (μM) - Replicate 1.
The mark [7] stands for this setting: read-out: EC50 (μM) - Replicate 2.

Read-outs that look alike come from different tables or passages of the source.

One may read the EC50 as the concentration giving half of the maximal effect. In general, CC50 refers to the concentration at which the toxic effect on the cells reaches its halfway point. The low end stands for greater toxicity to the cells, the high end for lower toxicity to the cells. One may read the Cmax as the highest concentration seen after dosing.

Oseltamivir acid [Oseltamivir (OSE)]: the concentration giving a half-maximal response (EC50) in data set [1] (read-out: EC50) is 760 nM; in data set [2] (setting [6]), 0.18 µM; in data set [2] (setting [7]) it was 0.024 µM. The 50% cytotoxic concentration (CC50) in the data set on MDCK cells was over 50 µg/mL.

Take `CCC(CC)[C@H](NC(C)=O)[C@@H]1[C@H](O)[C@@H](C(=O)O)C[C@H]1N=C(N)N.O.O.O` [Peramivir (PER), Peramivir trihydrate]: the 50% effective concentration (EC50) result is “the most potent NAI” in data set [1], 57 nM in data set [1] (read-out: EC50), 0.01 µM in data set [2] (setting [6]) and under 0.006 µM in data set [2] (setting [7]).

For `O=C1c2c(O)c(=O)ccn2N([C@@H]2c3ccccc3SCc3c2ccc(F)c3F)[C@@H]2COCCN12` [baloxavir, Baloxavir], the EC50 in data set [1] (Influenza A virus, H3N2) is 0.8 nM; in data set [4], about 1 nM; in data set [5] it was 1 nM. The values for the peak concentration (Cmax) in data set [3] (40 mg) and in data set [3] (80 mg) were 96.4 ng/mL and 107 ng/mL, respectively.

For the compound `CC(=O)N[C@H]1[C@H]([C@H](O)[C@H](O)CO)OC(C(=O)O)=C[C@@H]1N=C(N)N` [Zanamivir (ZAN), Zanamivir], the EC50 was found to be 2600 nM in data set [1] (Influenza A virus, H3N2, 40 h); 0.06 µM in data set [2] (Influenza A virus, H1N1, MDCK, read-out: EC50 (μM) - Replicate 1); 0.034 µM in data set [2] (Influenza A virus, H1N1, MDCK, read-out: EC50 (μM) - Replicate 2).

Values taken from patent publication US11230593B2, “Compositions and methods for treating and preventing influenza” (VISTERRA, INC., priority 2019, dated 2022).
